Reference: US12252524B2, “GIP/GLP1 co-agonist compounds” (Eli Lilly and Company, priority 2018, dated 2025)
Numbered stars: 1 amine (or outer) side, 2 acyl side, 3 side chain; on linkers, the order of the positions; unused ones are H or OH. Square brackets hold non-standard residues; d marks the D form. Side chains are listed from the residue outwards. Peptide text beside a SMILES is read from it. * marks the point of attachment. C20 diacid = O=C(O)CCCCCCCCCCCCCCCCCCC(=O)*; C18 diacid = O=C(O)CCCCCCCCCCCCCCCCC(=O)*; αMePhe(2-F) = C[C@](N)(Cc1ccccc1F)C(=O)O; γGlu = O=C(O)[C@H](CCC(=O)[*:2])N[*:1]; 3Pal = N[C@@H](Cc1cccnc1)C(=O)O; αMeL = CC(C)C[C@](C)(N)C(=O)O; αMeP = C[C@@]1(C(=O)O)CCCN1; Orn = NCCC[C@H](N)C(=O)O; AEEA = NCCOCCOCC(=O)O; Aib = CC(C)(N)C(=O)O

Key:
[1] = target: human GLP-1 receptor (GLP-1R) (Homo sapiens, UniProt P43220); assay: cAMP pharmacological functional assay in presence of casein, hGLP-1R; assay type: cell-based; conditions: HEK293 cells expressing hGLP-1R, 0.1% Casein, geometric mean; read-out: hGLP1R cAMP Rel EC50 nM (SEM, n)
[2] = target: T1, gastric inhibitory peptide receptor (GIPR) (Homo sapiens, UniProt P48546); assay: cAMP pharmacological functional assay in presence of casein, hGIPR; assay type: cell-based; conditions: HEK293 cells expressing hGIPR, 0.1% Casein, geometric mean; read-out: hGIPR cAMP Rel EC50 nM (SEM, n)
T1 sequence (P48546 22-466): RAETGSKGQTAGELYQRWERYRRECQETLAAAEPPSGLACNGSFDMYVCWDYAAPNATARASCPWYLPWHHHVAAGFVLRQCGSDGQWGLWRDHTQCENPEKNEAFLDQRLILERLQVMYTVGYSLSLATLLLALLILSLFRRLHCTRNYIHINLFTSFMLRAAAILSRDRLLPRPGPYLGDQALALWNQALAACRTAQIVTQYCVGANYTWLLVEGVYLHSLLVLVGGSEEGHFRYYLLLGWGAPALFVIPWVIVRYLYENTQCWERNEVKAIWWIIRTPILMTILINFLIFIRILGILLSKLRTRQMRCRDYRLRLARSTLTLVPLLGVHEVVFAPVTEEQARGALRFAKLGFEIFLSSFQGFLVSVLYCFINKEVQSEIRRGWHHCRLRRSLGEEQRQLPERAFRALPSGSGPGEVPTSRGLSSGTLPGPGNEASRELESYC

Chain of human GLP-1 receptor (GLP-1R) (P43220 24-463): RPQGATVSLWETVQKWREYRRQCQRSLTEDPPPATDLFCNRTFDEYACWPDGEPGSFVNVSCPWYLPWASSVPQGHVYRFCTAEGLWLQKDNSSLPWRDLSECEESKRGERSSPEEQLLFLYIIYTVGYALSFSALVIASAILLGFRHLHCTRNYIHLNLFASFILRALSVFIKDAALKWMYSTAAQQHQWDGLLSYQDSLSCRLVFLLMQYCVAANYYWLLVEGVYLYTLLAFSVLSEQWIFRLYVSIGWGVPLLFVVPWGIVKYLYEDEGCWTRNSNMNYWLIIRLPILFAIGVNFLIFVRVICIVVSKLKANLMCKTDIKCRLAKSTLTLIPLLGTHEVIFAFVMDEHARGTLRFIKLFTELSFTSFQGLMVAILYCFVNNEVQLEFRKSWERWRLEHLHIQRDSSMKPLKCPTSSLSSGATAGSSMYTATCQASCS

Compound	EC50 [1] [nM]	EC50 [2] [nM]
CC[C@H](C)[C@H](NC(=O)[C@H](CC(C)C)NC(=O)[C@H](Cc1ccc(O)cc1)NC(=O)[C@@H](CCC(=O)O)NC(=O)[C@@H](NC(=O)[C@H](Cc1ccccc1)NC(=O)[C@H](CCC(=O)O)NC(=O)C(C)(C)NC(=O)[C@H](CCC(N)=O)NC(=O)[C@H](C)NC(=O)[C@H](CCCCN)NC(=O)[C@H](CCCN)NC(=O)[C@H](CC(=O)O)NC(=O)[C@H](CC(C)C)NC(=O)[C@](C)(CC(C)C)NC(=O)[C@@H](NC(=O)[C@H](CO)NC(=O)[C@H](Cc1ccc(O)cc1)NC(=O)[C@H](CC(=O)O)NC(=O)[C@H](CO)NC(=O)[C@@H](NC(=O)[C@](C)(Cc1ccccc1F)NC(=O)[C@@H](NC(=O)CNC(=O)[C@H](CCC(=O)O)NC(=O)C(C)(C)NC(=O)[C@@H](N)Cc1ccc(O)cc1)[C@@H](C)O)[C@@H](C)O)[C@@H](C)CC)[C@@H](C)CC)C(=O)N[C@@H](CCC(=O)O)C(=O)NCC(=O)NCC(=O)N1CCC[C@H]1C(=O)N[C@@H](CO)C(=O)N[C@@H](CO)C(=O)NCC(=O)N[C@@H](C)C(=O)N1CCC[C@H]1C(=O)N1CCC[C@H]1C(=O)N1CCC[C@H]1C(=O)N[C@@H](CO)C(N)=O [Example 280] (H-Y[Aib]EGT[αMePhe(2-F)]TSDYSI[αMeL]LD[Orn]KAQ[Aib]EFI[dE]YLIEGGPSSGAPPPS-NH2)	0.0767	0.204
CC[C@H](C)[C@H](NC(=O)[C@H](CC(C)C)NC(=O)[C@H](Cc1ccc(O)cc1)NC(=O)[C@H](CCC(=O)O)NC(=O)[C@@H](NC(=O)[C@H](Cc1ccccc1)NC(=O)[C@H](C)NC(=O)C(C)(C)NC(=O)[C@H](CCC(N)=O)NC(=O)[C@H](C)NC(=O)[C@H](CCCCNC(=O)COCCOCCNC(=O)COCCOCCNC(=O)[C@@H](N)CCCCNC(=O)CCCCCCCCCCCCCCCCCCC(=O)O)NC(=O)[C@H](CCCCN)NC(=O)[C@H](CC(=O)O)NC(=O)[C@H](CC(C)C)NC(=O)[C@H](CC(C)C)NC(=O)[C@@H](NC(=O)[C@H](CO)NC(=O)[C@H](Cc1ccc(O)cc1)NC(=O)[C@H](CC(=O)O)NC(=O)[C@H](CO)NC(=O)[C@@H](NC(=O)[C@H](Cc1ccccc1)NC(=O)[C@@H](NC(=O)CNC(=O)[C@H](CCC(=O)O)NC(=O)C(C)(C)NC(=O)[C@@H](N)Cc1ccc(O)cc1)[C@@H](C)O)[C@@H](C)O)[C@@H](C)CC)[C@@H](C)CC)C(=O)N[C@@H](CCC(=O)O)C(=O)NCC(=O)NCC(=O)N1CCC[C@H]1C(=O)N[C@@H](CO)C(=O)N[C@@H](CO)C(=O)NCC(=O)N[C@@H](C)C(=O)N1CCC[C@H]1C(=O)N1CCC[C@H]1C(=O)N1CCC[C@H]1C(=O)N[C@@H](CO)C(N)=O [Example 113]	0.233	0.166
CC[C@H](C)[C@H](NC(=O)[C@H](CC(C)C)NC(=O)[C@H](Cc1ccc(O)cc1)NC(=O)[C@@H](CCC(=O)O)NC(=O)[C@@H](NC(=O)[C@H](Cc1ccccc1)NC(=O)[C@H](CCC(=O)O)NC(=O)C(C)(C)NC(=O)[C@H](CCC(N)=O)NC(=O)[C@H](C)NC(=O)[C@H](CCCCNC(=O)COCCOCCNC(=O)COCCOCCNC(=O)CC[C@H](NC(=O)CCCCCCCCCCCCCCCCCCC(=O)O)C(=O)O)NC(=O)[C@H](CCC(=O)O)NC(=O)[C@H](CC(=O)O)NC(=O)[C@H](CC(C)C)NC(=O)[C@](C)(CC(C)C)NC(=O)[C@@H](NC(=O)[C@H](CO)NC(=O)[C@H](Cc1cccnc1)NC(=O)[C@H](CC(=O)O)NC(=O)[C@H](CO)NC(=O)[C@@H](NC(=O)[C@](C)(Cc1ccccc1F)NC(=O)[C@@H](NC(=O)CNC(=O)[C@H](CCC(=O)O)NC(=O)C(C)(C)NC(=O)[C@@H](N)Cc1c[nH]cn1)[C@@H](C)O)[C@@H](C)O)[C@@H](C)CC)[C@@H](C)CC)C(=O)N[C@@H](CCC(=O)O)C(=O)NCC(=O)NCC(=O)N1CCC[C@H]1C(=O)N[C@@H](CO)C(=O)N[C@@H](CO)C(=O)NCC(=O)N[C@@H](C)C(=O)N1CCC[C@H]1C(=O)N1CCC[C@H]1C(=O)N1CCC[C@H]1C(=O)N[C@@H](CO)C(N)=O [Example 190] (H-H[Aib]EGT[αMePhe(2-F)]TSD[3Pal]SI[αMeL]LDEK([AEEA-AEEA-γGlu-C20 diacid])AQ[Aib]EFI[dE]YLIEGGPSSGAPPPS-NH2)	0.0241	0.738
CC[C@H](C)[C@H](NC(=O)[C@H](CC(C)C)NC(=O)[C@H](Cc1ccc(O)cc1)NC(=O)[C@@H](CCC(=O)O)NC(=O)[C@@H](NC(=O)[C@H](Cc1ccccc1)NC(=O)[C@@H](NC(=O)C(C)(C)NC(=O)[C@H](CCC(N)=O)NC(=O)[C@H](C)NC(=O)[C@H](CCCCNC(=O)COCCOCCNC(=O)COCCOCCNC(=O)CC[C@H](NC(=O)CCCCCCCCCCCCCCCCCCC(=O)O)C(=O)O)NC(=O)[C@H](CCC(=O)O)NC(=O)[C@H](CC(=O)O)NC(=O)[C@H](CC(C)C)NC(=O)[C@](C)(CC(C)C)NC(=O)[C@@H](NC(=O)[C@H](CO)NC(=O)[C@H](Cc1c[nH]cn1)NC(=O)[C@H](CC(=O)O)NC(=O)[C@H](CO)NC(=O)[C@@H](NC(=O)[C@](C)(Cc1ccccc1F)NC(=O)[C@@H](NC(=O)CNC(=O)[C@H](CCC(=O)O)NC(=O)C(C)(C)NC(=O)[C@@H](N)Cc1ccc(O)cc1)[C@@H](C)O)[C@@H](C)O)[C@@H](C)CC)[C@@H](C)O)[C@@H](C)CC)C(=O)N[C@H](CCC(=O)O)C(=O)NCC(=O)NCC(=O)N1CCC[C@H]1C(=O)N[C@@H](CO)C(=O)N[C@@H](CO)C(=O)NCC(=O)N[C@@H](C)C(=O)N1CCC[C@H]1C(=O)N1CCC[C@H]1C(=O)N1CCC[C@H]1C(=O)N[C@@H](CO)C(N)=O [Example 164] (H-Y[Aib]EGT[αMePhe(2-F)]TSDHSI[αMeL]LDEK([AEEA-AEEA-γGlu-C20 diacid])AQ[Aib]TFI[dE]YLI[dE]GGPSSGAPPPS-NH2)	15.6	3.09
CC[C@H](C)[C@H](NC(=O)[C@H](CC(C)C)NC(=O)[C@H](Cc1ccc(O)cc1)NC(=O)[C@H](CCC(=O)O)NC(=O)[C@@H](NC(=O)[C@H](Cc1ccccc1)NC(=O)[C@H](C)NC(=O)[C@H](CCC(N)=O)NC(=O)[C@H](CCC(N)=O)NC(=O)[C@H](C)NC(=O)[C@H](CCCCNC(=O)COCCOCCNC(=O)COCCOCCNC(=O)CC[C@H](NC(=O)CCCCCCCCCCCCCCCCC(=O)O)C(=O)O)NC(=O)[C@H](CCC(=O)O)NC(=O)[C@H](CC(=O)O)NC(=O)[C@H](CC(C)C)NC(=O)[C@H](CC(C)C)NC(=O)[C@@H](NC(=O)[C@H](CO)NC(=O)[C@H](Cc1ccc(O)cc1)NC(=O)[C@H](CC(=O)O)NC(=O)[C@H](CO)NC(=O)[C@@H](NC(=O)[C@H](Cc1ccccc1)NC(=O)[C@@H](NC(=O)CNC(=O)[C@H](CCC(=O)O)NC(=O)[C@]1(C)CCCN1C(=O)[C@@H](N)Cc1ccc(O)cc1)[C@@H](C)O)[C@@H](C)O)[C@@H](C)CC)[C@@H](C)CC)C(=O)N[C@@H](CCC(=O)O)C(=O)NCC(=O)NCC(=O)N1CCC[C@H]1C(=O)N[C@@H](CO)C(=O)N[C@@H](CO)C(=O)NCC(N)=O [Example 197] (H-Y[αMeP]EGTFTSDYSILLDEK([AEEA-AEEA-γGlu-C18 diacid])AQQAFIEYLIEGGPSSG-NH2)	0.248	0.211
CC[C@H](C)[C@H](NC(=O)[C@H](Cc1ccccc1)NC(=O)[C@H](CCC(=O)O)NC(=O)C(C)(C)NC(=O)[C@H](CCC(N)=O)NC(=O)[C@H](C)NC(=O)[C@H](CCCCNC(=O)COCCOCCNC(=O)COCCOCCNC(=O)CC[C@H](NC(=O)CCCCCCCCCCCCCCCCCCC(=O)O)C(=O)O)NC(=O)[C@H](CCC(=O)O)NC(=O)[C@H](CC(=O)O)NC(=O)[C@H](CC(C)C)NC(=O)[C@](C)(CC(C)C)NC(=O)[C@@H](NC(=O)[C@H](CO)NC(=O)[C@H](Cc1ccc(O)cc1)NC(=O)[C@H](CC(=O)O)NC(=O)[C@H](CO)NC(=O)[C@@H](NC(=O)[C@](C)(Cc1ccccc1F)NC(=O)[C@@H](NC(=O)CNC(=O)[C@H](CCC(=O)O)NC(=O)C(C)(C)NC(=O)[C@@H](N)Cc1ccc(O)cc1)[C@@H](C)O)[C@@H](C)O)[C@@H](C)CC)C(=O)N[C@@H](C)C(=O)N[C@@H](Cc1ccc(O)cc1)C(=O)N[C@@H](CC(C)C)C(=O)N[C@H](C(=O)N[C@@H](CCC(=O)O)C(=O)NCC(=O)NCC(=O)N1CCC[C@H]1C(=O)N[C@@H](CO)C(=O)N[C@@H](CO)C(=O)NCC(=O)N[C@@H](C)C(=O)N1CCC[C@H]1C(=O)N1CCC[C@H]1C(=O)N1CCC[C@H]1C(=O)N[C@@H](CO)C(N)=O)[C@@H](C)CC [Example 148] (H-Y[Aib]EGT[αMePhe(2-F)]TSDYSI[αMeL]LDEK([AEEA-AEEA-γGlu-C20 diacid])AQ[Aib]EFIAYLIEGGPSSGAPPPS-NH2)	0.0626	0.043
